Where two headings read alike, the source gives them in different places. One block for each compound: values may come before it.
Experiments:
right ventricular strips = assay: Cardiac stimulant activity in vitro, guinea pig ventricular strips (force of contraction)
Experimental: The compounds of formula (I) and their pharmaceutically acceptable salts are tested for cardiac stimulant activity following a procedure based on that of S. C. Verma and J. H. McNeill (J.Pharm & Exp. Therapeutics, 200, 352-362 (1977)). Guinea pigs (500-700 g) of either sex are sacrificed and the hearts are quickly removed and transferred to a dissecting dish containing oxygenated bathing fluid. While in the bathing medium, the right ventricle is cut into two strips. The strips are each suspended in a 50 ml bath containing Krebs Henseleit solution at 37° C., and the bath is bubbled with 95% oxygen and 5% carbon dioxide. The ventricular strips are electrically stimulated at a frequency of 1.0 Hz, at double the threshold voltage. A resting tension of 1.0 g is applied to the strips and the tension is kept constant by readjustment during an equilibration period of 60 minutes. The bathing fluid is frequently changed during this period. When a steady base line is obtained, a compound under test is added to the bathing fluid and a cumulative concentration response curve is plotted. The compounds for use in the present invention which were tested gave a 50% increase in the force of contraction of the ventricular strips at concentrations in the bathing fluid of less than 10^-4 molar, thus showing that they have activity as positive inotropic agents.

[1] = system: left ventricular dp/dt max; assay: Cardiac stimulant activity in vivo, conscious dogs (left ventricular dp/dt max); set-up: species or system dog; settings: for minimal effective dose: Canis lupus familiaris
Experimental: Oral administration caused positive inotropic responses at doses of 0.25 mg/kg and below. […] Therefore this compound is particularly beneficial with regard to `force-rate` selectivity.

[2] = system: 2-pyridylethylamine-induced bronchoconstriction; assay: Bronchodilatation in vivo, 2-pyridylethylamine-induced bronchoconstriction; set-up: species or system guinea-pigs (Dunkin Hartley); settings: i.v. bolus one minute before challenge
Experimental: Male guinea-pigs of the Dunkin Hartley strain (530 g±6 g) were anaesthetised with Sagatal (pentobarbital sodium) (90 mg/kg i.p.). Airway resistance was measured using a modification of the classical Konzett-Rossler technique (Versuchsanordnung zu Untersuchungen an der Bronchialmuskulatur. Naunyn-Schmiedebergs Arch. Exp. Path. Pharmak., 30: pp 121-145, (1940)). A dose of 2-pyridylethylamine which gave approximately 100% increase in airway resistance was selected for i.v. administration. Bolus doses of the compound of Example 1 were administered (i.v.) one minute before the 2-pyridylethylamine challenge.

hindquarters blood flow = assay: Vasodilator activity, anaesthetised rat hindquarters autoperfused at constant blood pressure; assay type: in vivo; settings: for dose to increase hindquarters blood flow by 50%: anaesthetised rat hindquarters screen
From the text: The dose to increase hindquarters blood flow by 50% was 4.6 μmol/Kg.

[3] = system: left ventricular dp/dt max; assay: Cardiac stimulant activity in vivo, anaesthetised cats (left ventricular dp/dt max); set-up: species or system cat; key to Relative Duration: ***: long; **: medium; *: short; settings: for positive inotropism, relative to the (+)-isomer: anaesthetised cat screen
From the text: The dose to increase left ventricular dp/dt max by 50% is given as the ED50.

platelets = assay: Platelet aggregation inhibition in vitro (platelet rich plasma); assay type: cell-based, normal healthy volunteers (human)
Experimental: Plasma was prepared as follows. Blood from 6 normal healthy volunteers was mixed with 3.8% w/v trisodium citrate (9 parts blood: 1 part citrate). The samples were centrifuged at 150 g for 10 minutes and the supernatant platelet rich plasma (PRP) was removed. The platelet concentration in the PRP was adjusted to 300±50×10^9 /1 platelets with autologous platelet poor plasma.
25 μl aliquots of a 40 μg/ml solution of the compound of Example 1 were incubated with 225 μl aliquots of PRP in a Payton Aggregometer for 3 minutes. Control solutions, one matched to the test solution with respect to solution pH and tonicity, and another of 0.9% w/v NaCl were also studied. After 3 minutes 25 μl aliquots of adenosine diphosphate solution at a concentration of 20 μm were added to each solution. The aggregation response was recorded until complete with a maximum of 3 minutes. The procedure was repeated using as different aggregation agents: 100 μg collagen; 100 μm adrenaline or 5 mg/ml arachidonic acid instead of adenosine diphosphate.
The aggregation responses induced by the different aggregation agents were measured for the platelets from each donor. The results were assessed by visual examination of the aggregation tracing produced by the Payton aggregometer and semi-quantitatively assessed by measurement of the light transmission 3 minutes after adding the inducing agent.
Serial dilutions of this compound were prepared and tested for inhibition of adenosine diphosphate induced aggregation.

Type (III) PDE = biological target: T1, Type (III) PDE (Cavia porcellus, UniProt H0VIU9); assay: Phosphodiesterase Type (III) inhibition; assay type: biochemical, guinea pig; settings: 1 μm cyclic AMP, 10 minutes; 10 minutes pre-incubation; read-out: IC50, inhibition of `low Km` Type (III) PDE activity
T1 construct: phosphodiesterases (PDE) isolated from guinea pig ventricle; from tissue; host or cells: guinea pig ventricle; forms separated by ion-exchange chromatography
T1 sequence (H0VIU9 1-1132): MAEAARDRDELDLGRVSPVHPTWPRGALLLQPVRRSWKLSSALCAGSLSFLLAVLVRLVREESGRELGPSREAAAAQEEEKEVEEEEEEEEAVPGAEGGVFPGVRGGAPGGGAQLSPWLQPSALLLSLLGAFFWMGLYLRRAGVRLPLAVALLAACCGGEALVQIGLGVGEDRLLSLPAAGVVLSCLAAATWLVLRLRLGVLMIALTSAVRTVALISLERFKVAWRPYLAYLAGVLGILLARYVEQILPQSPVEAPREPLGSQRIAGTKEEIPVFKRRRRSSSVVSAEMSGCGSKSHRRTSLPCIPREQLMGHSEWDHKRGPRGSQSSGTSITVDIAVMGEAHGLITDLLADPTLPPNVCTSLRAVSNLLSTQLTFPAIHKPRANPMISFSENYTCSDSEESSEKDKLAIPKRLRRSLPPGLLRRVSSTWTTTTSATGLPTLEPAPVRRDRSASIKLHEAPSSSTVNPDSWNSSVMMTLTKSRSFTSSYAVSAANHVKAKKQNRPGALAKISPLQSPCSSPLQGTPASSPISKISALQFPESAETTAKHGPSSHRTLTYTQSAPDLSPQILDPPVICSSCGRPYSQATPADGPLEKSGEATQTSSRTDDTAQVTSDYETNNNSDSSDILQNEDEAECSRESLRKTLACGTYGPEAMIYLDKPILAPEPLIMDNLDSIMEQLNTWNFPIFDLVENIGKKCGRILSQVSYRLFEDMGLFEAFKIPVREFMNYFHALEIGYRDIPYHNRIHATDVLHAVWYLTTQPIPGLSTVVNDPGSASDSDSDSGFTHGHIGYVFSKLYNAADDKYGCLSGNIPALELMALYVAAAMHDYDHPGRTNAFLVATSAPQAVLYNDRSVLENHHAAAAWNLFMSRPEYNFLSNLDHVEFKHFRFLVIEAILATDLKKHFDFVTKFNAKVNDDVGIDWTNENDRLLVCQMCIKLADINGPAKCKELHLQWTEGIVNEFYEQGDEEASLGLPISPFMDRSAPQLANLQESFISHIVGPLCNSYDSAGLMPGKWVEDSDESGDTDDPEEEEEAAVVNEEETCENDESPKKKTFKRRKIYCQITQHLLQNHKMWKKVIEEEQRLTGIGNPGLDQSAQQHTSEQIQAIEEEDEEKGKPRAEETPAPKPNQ
Experimental: The products of Example 13 were tested for selectivity as inhibitors of the phosphodiesterases (PDE) isolated from guinea pig ventricle. Three forms of PDE were isolated by ion-exchange chromatography using the method of Thompson et al, Adv. Nucleotide Research, vol 10, p 69, Brooker et al (Eds), Raven Press, 1979.
In separate experiments with the (-)-isomer, the (+)-isomer and racemic material, following a 10 minutes pre-incubation of the test compound with Type (III) PDE, PDE activity was measured at 1 μm cyclic AMP for 10 minutes (using a modification of the method of Davis and Daly, Journal of Cyclic Nucleotide Research, vol 5, p 65, Raven Press, 1979). IC50 values were obtained for inhibition of `low Km` Type (III) PDE activity: […]

[4] = system: hindquarters perfusion pressure; assay: Vasodilator activity, anaesthetised cat hindquarters autoperfused at constant blood flow; assay type: in vivo; settings: anaesthetised cat screen
Experimental: The compounds of Examples 3, 4, 5 and 8 were tested in autoperfused anaesthetised cat hindquarters (autoperfused at constant blood flow). The doses to decrease hindquarters perfusion pressure (vasodilatation) by 15% are given below: […]

[5] = i.v., anaesthetised rat hindquarters
[6] = in vitro, read-out: EC50 value, inotropic activity on guinea pig ventricular strip

Compound: CNC(=NC#N)Nc1ccc(C2=NNC(=O)CC2C)cc1 (single isomer, unassigned; (+)) [Example 15, (+)-6-[4-(N^3 -Methyl-N^2-cyanoguanidino)phenyl]-5-methyl-4,5-dihydro-3(2H)-pyridazinone]
EC50 (right ventricular strips; [6]): 4.3 µM
dose to increase hindquarters blood flow by 50% (hindquarters blood flow): 8.6 µM/kg
IC50 (Type (III) PDE): 11.3 ± 5.4 µM

Compound: CC1CC(=O)NN=C1c1ccc(N)cc1 (racemic) [racemate, 6-(4-aminophenyl)-5-methyl-4,5-dihydro-3(2H)-pyridazinone]
IC50 (Type (III) PDE): 37 ± 12.9 µM

Compound: CNC(=NC#N)Nc1ccc(C2=NNC(=O)CC2C)cc1 (single isomer, unassigned; (-)) [Example 14, (-)-6-[4-(N^3 -Methyl-N^2-cyanoguanidino)phenyl]-5-methyl-4,5-dihydro-3(2H)-pyridazinone]
vasodilatation, relative to the (+)-isomer [4]: more active than the corresponding (+)-isomer of Example 15
EC50 (right ventricular strips; [6]): 0.71 µM
dose to increase hindquarters blood flow by 50% (hindquarters blood flow): 2.4 µM/kg
IC50 (Type (III) PDE): 1.7 ± 1 µM
positive inotropism, relative to the (+)-isomer [3]: more active than the corresponding (+)-isomer of Example 15

The next lines start with results.

EC50 (right ventricular strips; Cavia porcellus, 50% increase in force of contraction, guinea pig ventricular strips, read-out: EC50 × 10^-6 M): 1.4 µM
Compound: CNC(=NC#N)Nc1ccc(C2=NNC(=O)CC2C)cc1 (stereo not drawn) [Example 1, 6-[4-(N^3 -Methyl-N^2-cyanoguanidino)phenyl]-5-methyl-4,5-dihydro-3(2H)-pyridazinone]
changes in blood pressure or heart rate [1]: without changes in blood pressure or heart rate
minimal effective dose ([1]; intravenous, read-out: dose increasing left ventricular dp/dt max): < 0.1 mg/kg
minimal effective dose ([1]; oral, read-out: dose causing positive inotropic responses): ≤ 0.25 mg/kg
persistence of positive inotropic responses ([1]; persisted for up to): 9 to 12 h
ED50 ([2]; Cavia porcellus, iv, read-out: ED50, dose which reduced the 2-pyridylethylamine bronchoconstriction by 50%): 0.39 µmol/kg
minimal effective dose ([2]; Cavia porcellus, read-out: threshold dose): 0.0316 µmol/kg
effect on 2-pyridylethylamine-induced bronchoconstriction [2]: reduced the 2-pyridylethylamine-induced bronchoconstriction
ED (50% increase in hindquarters blood flow) (hindquarters blood flow; Rattus norvegicus, iv, anaesthetised rat, read-out: dose to increase hindquarters blood flow by 50%): 4.6 µmol/kg
dose range of dose-dependent vasodilatation (hindquarters blood flow; [5]): 1 to 10 µmol/kg
duration of activity (hindquarters blood flow; [5]): significant duration of activity
ED50 ([3]; Felis catus, intravenous, dose to increase left ventricular dp/dt max by 50%, anaesthetised cats): 0.2 µmol/kg
Relative Duration ([3]; estimated in anaesthetised cats following i.v. administration): ***
IC100 (platelets; Homo sapiens, Platelet, adenosine diphosphate induced aggregation, serial dilutions, read-out: concentration completely inhibiting second wave aggregation): ≥ 0.5 µg/mL
inhibition of platelet aggregation induced by adenosine diphosphate (platelets; final concentrations of 5 μg/ml, adenosine diphosphate): inhibited platelet aggregation
inhibition of platelet aggregation induced by adrenaline (platelets; final concentrations of 5 μg/ml, adrenaline): inhibited platelet aggregation
inhibition of platelet aggregation induced by arachidonic acid (platelets; final concentrations of 5 μg/ml, arachidonic acid): inhibited platelet aggregation
inhibition of platelet aggregation induced by collagen (platelets; final concentrations of 5 μg/ml, collagen): inhibited platelet aggregation

EC50 (right ventricular strips; [6]): 1.4 µM
IC50 (Type (III) PDE): 9.6 ± 3.4 µM
Compound: CC1CC(=O)NN=C1c1ccc(N)cc1 (single isomer, unassigned; (-)) [(-)-isomer, (-)-6-(4-aminophenyl)-5-methyl-4,5-dihydro-3(2H)-pyridazinone]
vasodilatation, relative to the (+)-isomer [4]: more active than the (+)-isomer
positive inotropism, relative to the (+)-isomer [3]: more active than the (+)-isomer

EC50 (right ventricular strips; [6]): 11.3 µM
IC50 (Type (III) PDE): 207 ± 88 µM
Compound: CC1CC(=O)NN=C1c1ccc(N)cc1 (single isomer, unassigned; (+)) [(+)-isomer, (+)-6-(4-aminophenyl)-5-methyl-4,5-dihydro-3(2H)-pyridazinone]

Reference: patent US4654342A, “6-(cyanoguanidinophenyl)pyridazinones as cardiac stimulants” (Smith Kline & French Laboratories Ltd., priority 1984, dated 1987)
